# Laboratory results published in the NIST ThermoML archive (doi:10.1016/j.jct.2006.03.009).
# Numbers after ± are expanded uncertainties.
# Experiment: cn = amount concentration of the nth substance listed, in mol/dm3
# Settings: Liquid; for mass density: 7 kPa, Pycnometric method; for speed of sound: 101 kPa
compound,measurement,setting,value
[Cl-].[K+] [potassium chloride] + O,mass density,"303.15 K, c1 = 1.5",1061.4 ± 0.4 kg/m3
same,speed of sound,"303.15 K, c1 = 1.5",1584 ± 3.3 m/s
same,mass density,"308.15 K, c1 = 1.5",1059.7 ± 0.5 kg/m3
same,speed of sound,"308.15 K, c1 = 1.5",1590.4 ± 3.3 m/s
same,mass density,"313.15 K, c1 = 1.5",1057.8 ± 0.5 kg/m3
same,speed of sound,"313.15 K, c1 = 1.5",1595.8 ± 3.4 m/s
same,mass density,"318.15 K, c1 = 1.5",1055.6 ± 0.5 kg/m3
same,speed of sound,"318.15 K, c1 = 1.5",1601.6 ± 3.4 m/s
same,mass density,"323.15 K, c1 = 1.5",1053.3 ± 0.5 kg/m3
same,speed of sound,"323.15 K, c1 = 1.5",1606.2 ± 3.4 m/s
O=[N+]([O-])[O-].[K+] [potassium nitrate] + O,mass density,"303.15 K, c1 = 1",1052.9 ± 0.4 kg/m3
same,speed of sound,"303.15 K, c1 = 1",1541.8 ± 3.3 m/s
same,mass density,"308.15 K, c1 = 1",1051.1 ± 0.4 kg/m3
same,speed of sound,"308.15 K, c1 = 1",1550.2 ± 3.3 m/s
same,mass density,"313.15 K, c1 = 1",1049 ± 0.5 kg/m3
same,speed of sound,"313.15 K, c1 = 1",1557.4 ± 3.3 m/s
same,mass density,"318.15 K, c1 = 1",1046.7 ± 0.5 kg/m3
same,speed of sound,"318.15 K, c1 = 1",1563.6 ± 3.3 m/s
same,mass density,"323.15 K, c1 = 1",1044.2 ± 0.5 kg/m3
same,speed of sound,"323.15 K, c1 = 1",1568.4 ± 3.3 m/s
O=S(=O)([O-])[O-].[K+].[K+] [potassium sulfate] + O,mass density,"303.15 K, c1 = 0.5",1059.3 ± 0.4 kg/m3
same,speed of sound,"303.15 K, c1 = 0.5",1571.2 ± 3.3 m/s
same,mass density,"308.15 K, c1 = 0.5",1057.9 ± 0.5 kg/m3
same,speed of sound,"308.15 K, c1 = 0.5",1578.8 ± 3.3 m/s
same,mass density,"313.15 K, c1 = 0.5",1056.1 ± 0.5 kg/m3
same,speed of sound,"313.15 K, c1 = 0.5",1587.6 ± 3.3 m/s
same,mass density,"318.15 K, c1 = 0.5",1054.2 ± 0.5 kg/m3
same,speed of sound,"318.15 K, c1 = 0.5",1592.6 ± 3.3 m/s
same,mass density,"323.15 K, c1 = 0.5",1051.9 ± 0.5 kg/m3
same,speed of sound,"323.15 K, c1 = 0.5",1597.6 ± 3.4 m/s
